Results as given in patent US11312719B2, “9-substituted amino triazolo quinazoline derivatives as adenosine receptor antagonists, pharmaceutical compositions and their use” (Merck Sharp & Dohme Corp., priority 2018, dated 2022).

How the values were obtained:
[1] = target: human A2b adenosine receptor (Homo sapiens (Human), UniProt P29275); experiment: A2b radioligand filtration binding assay; details: membranes from HEK293 cells expressing human A2b receptor
Method: Measurement of A2b Binding Affinity
The reported affinity of the compounds of the invention for the human A2b adenosine receptor was determined experimentally using a radioligand filtration binding assay. This assay measures the amount of binding of a tritiated proprietary A2b receptor antagonist, in the presence and absence of a compound of the invention, to membranes made from HEK293 cells recombinantly expressing the human A2b adenosine receptor (Perkin Elmer, Cat. No. ES-013-C).
148 μL (135 μg/mL) membranes and 2 μL test compounds were transferred to individual wells of a 96-well polypropylene assay plate and incubated for 15 to 30 minutes at room temperature with agitation. Tritiated radioligand was diluted to a concentration of 14 nM in assay buffer (phosphate buffered saline without Magnesium and Calcium, pH 7.4; GE Healthcare Life Sciences, Cat. No. SH30256.01) and then 50 μL of the solution were transferred to each well of the assay plate. To define total and non-specific binding, wells containing 1% DMSO and 20 μM N-ethylcarboxamidoadenosine (Tocris Bioscience, Cat. No. 1691) respectively, were also included. The wells of the assay plate were incubated at room temperature for 60 minutes with agitation, then filtered using a FilterMate Harvester® (Perkin Elmer) or similar equipment through a UniFilter-96® PEI coated plate (Perkin Elmer Cat. No. 6005274 or 6005277). Filtering was achieved by aspirating the contents of the assay plate for 5 seconds, then washing and aspirating the contents three times with ice-cooled wash buffer (assay buffer supplemented with 0.0025% Brij58) and allowing the vacuum manifold to dry the plate for 30 seconds. The filter plate was incubated for at least 1 hour at 55° C. and allowed to dry. The bottom of the filter plate was then sealed with backing tape. 40 μL Ultima Gold™ (Perkin Elmer, Cat. No. 6013329) was added to each well of the filter plate and the top of the plate was sealed with TopSeal-A PLUS® clear plate seal (Perkin Elmer, Cat. No. 6050185). The plates were then incubated for at least 20 minutes, and then the amount of radioactivity remaining in each well was determined using a TopCount® (Perkin Elmer) scintillation counter. After normalization to total and non-specific binding, the percent effect at each compound concentration was calculated. The plot of percent effect versus the log of compound concentration was analyzed electronically using a 4-parameter logistic fit based on the Levenberg-Marquardt algorithm to generate IC50 values.

[2] = target: human A2a adenosine receptor (Homo sapiens (Human), UniProt P29274); experiment: A2a receptor affinity radioligand binding assay ([3H] SCH58261); details: membranes from HEK293 or CHO cells expressing human A2a receptor
Chain of human A2a adenosine receptor (P29274 whole entry): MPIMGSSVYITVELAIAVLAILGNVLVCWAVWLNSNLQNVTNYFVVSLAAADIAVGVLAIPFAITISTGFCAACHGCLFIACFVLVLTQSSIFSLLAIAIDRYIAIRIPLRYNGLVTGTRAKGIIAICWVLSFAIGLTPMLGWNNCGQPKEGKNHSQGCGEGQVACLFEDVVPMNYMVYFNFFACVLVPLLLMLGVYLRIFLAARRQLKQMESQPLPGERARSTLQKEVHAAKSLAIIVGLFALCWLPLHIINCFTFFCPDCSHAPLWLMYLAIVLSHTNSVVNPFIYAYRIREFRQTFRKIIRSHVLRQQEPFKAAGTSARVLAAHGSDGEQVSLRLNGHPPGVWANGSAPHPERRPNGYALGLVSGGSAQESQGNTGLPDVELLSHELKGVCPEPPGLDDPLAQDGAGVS
Method: The A2a receptor affinity binding assay measured the amount of binding of a tritiated ligand with high affinity for the A2a adenosine receptor to membranes made from HEK293 or CHO cells recombinantly expressing the human A2a adenosine receptor, in the presence of varying concentrations of a compound of the invention.
Measurement of A2a Binding Affinity Using Radioligand Binding
148 μL (5 μg/mL) membranes (Perkin Elmer, Cat. No. RBHA2aM400UA) and 2 μL compounds of the invention to be tested (test compound) were transferred to individual wells of a 96-well polypropylene assay plate and incubated for 15 to 30 minutes at room temperature. [^3H] SCH58261 ((7-(2-phenylethyl)-5-amino-2-(2-furyl)-pyrazolo-[4,3-e]-1,2,4-triazolo[1,5-c]pyrimidine)) was diluted in assay buffer (50 mM Tris pH 7.4, 10 mM MgCl2, 0.005% Tween20) to a concentration of 4 nM and 50 μL transferred to each well of the assay plate. To define total and non-specific binding, wells containing 1% DMSO and 1 μM ZM241385 (Tocris Bioscience, Cat. No. 1036) respectively, were also included. The assay plate was incubated at room temperature for 60 minutes with agitation. Using a FilterMate Harvester® (Perkin Elmer), the contents of the assay plate were filtered through a UniFilter-96® PEI coated plate (Perkin Elmer Cat. No. 6005274 or 6005277). Filtering was achieved by aspirating the contents of the assay plate for 5 seconds, then washing and aspirating the contents three times with ice-cooled wash buffer (50 mM Tris-HCl pH 7.4, 150 mM NaCl) and allowing the vacuum manifold to dry the plate for 30 seconds. The filter plate was incubated for at least 1 hour at 55° C., and allowed to dry. The bottom of the filter plate was sealed with backing tape. 40 μL Ultima Gold™ (Perkin Elmer, Cat. No. 6013329) was added to each well of the filter plate and the top of the plate was sealed with TopSeal-A PLUS® clear plate seal (Perkin Elmer, Cat. No. 6050185). The plate was incubated for at least 20 minutes, and then the amount of radioactivity remaining in each well was determined using a TopCount® (Perkin Elmer) scintillation counter. After normalization to total and non-specific binding, the percent effect at each compound concentration was calculated. The plot of percent effect versus the log of compound concentration was analyzed electronically using a 4-parameter logistic fit based on the Levenberg-Marquardt algorithm to generate IC50 values.

Chain of human A2b adenosine receptor (P29275 whole entry): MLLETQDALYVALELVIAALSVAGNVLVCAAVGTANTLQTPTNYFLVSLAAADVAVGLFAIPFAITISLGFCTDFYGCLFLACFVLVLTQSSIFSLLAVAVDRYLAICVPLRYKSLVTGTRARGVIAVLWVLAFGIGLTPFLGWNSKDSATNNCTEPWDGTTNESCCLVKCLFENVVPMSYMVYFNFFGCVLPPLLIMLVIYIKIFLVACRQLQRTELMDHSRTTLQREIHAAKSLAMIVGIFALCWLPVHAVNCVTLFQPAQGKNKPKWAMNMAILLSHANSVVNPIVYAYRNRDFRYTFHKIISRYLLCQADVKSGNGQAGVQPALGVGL

SMILES | IC50 [1] | IC50 [2]
COc1cc(F)cc2c1nc(N)n1nc(C3CCCCN(c4cnn(CC(C)(C)O)c4)C3)nc21 (racemic) [Example 39, rac-1-(4-(3-(5-amino-9-fluoro-7-methoxy-[1,2,4]triazolo [1,5-c]quinazoln-2-yl)azepan-1-yl)-1H-pyrazol-1-yl)-2-methylpropan-2-ol] | 43.3 nM | 1.1 nM
COc1cc2nc(N)n3nc(C4CCCN(c5cnn(CC(C)(C)O)c5)C4=O)nc3c2cc1F (racemic) [Example 139, rac-3-(5-amino-9-fluoro-8-methoxy-[1,2,4]triazolo[1,5-c]quinazolin-2-yl)-1-(1-(2-hydroxy-2-methylpropyl)-1H-pyrazol-4-yl)piperidin-2-one] | 2820 nM | 16.8 nM
COc1cc2nc(N)n3nc([C@@H]4CCCN(c5cnn(C(C)C(C)(C)O)c5)C4)nc3c2cc1F (single isomer, unassigned) [Example 12, (S or R)-3-(4-((R)-3-(5-amino-9-fluoro-8-methoxy-[1,2,4]triazolo [1,5-c]quinazolin-2-yl)piperidin-1-yl)-1H-pyrazol-1-yl)-2-methylbutan-2-ol] | 75 nM | 1.7 nM
COc1cc2nc(N)n3nc([C@@H]4CCCN(c5cnn(C(C)C(C)(C)O)c5)C4)nc3c2cc1F (single isomer, unassigned) [Example 13, (R or S)-3-(4-((R)-3-(5-amino-9-fluoro-8-methoxy-[1,2,4]triazolo[1,5-c]quinazolin-2-yl)piperidin-l-yl)-1H-pyrazol-1-yl)-2-methylbutan-2-ol] | 72.6 nM | 0.7 nM
COc1cc2nc(N)n3nc(C4CCC(C)N(c5cnn(C(C)(C)C(C)(C)O)c5)C4)nc3c2cc1F (single isomer, unassigned) [Example 43, 3-(4-((2S,5R or 2R,5S)-5-(5-amino-9-fluoro-8-methoxy-[1,2,4]triazolo[1,5-c]quinazolin-2-yl)-2-methylpiperidin-1-yl)-1H-pyrazol-1-yl)-2,3-dimethylbutan-2-ol] | 3.4 nM | 0.7 nM
COc1cc2nc(N)n3nc(C4CCC(C)N(c5cnn(C6CCOCC6)c5)C4)nc3c2cc1F (single isomer, unassigned) [Example 44, 9-fluoro-8-methoxy-2-((3R,6S or 3S,6R)-6-methyl-1-(1-(tetrahydro-2H-pyran-4-yl)-1H-pyrazol-4-yl)piperidin-3-yl)-[1,2,4]triazolo[1,5-c]quinazolin-5-amine] | 20.4 nM | 1.3 nM
COc1cc2nc(N)n3nc(C4CCC(C)N(c5cnn(CC6(CF)COC6)c5)C4)nc3c2cc1F (single isomer, unassigned) [Example 47, 9-fluor-2-((3R,6S or 3S,6R)-1-(1((3-(fluoromethyl)oxetan-3-yl)methyl)-1H-pyrazol-4-yl)-6-methylpiperidin-3-yl)-8-methoxy-[1,2,4]triazolo[1,5-c]quinazolin-5-amine] | 284 nM | 8.2 nM
COc1cc2nc(N)n3nc([C@@H]4CC[C@H](C)N(c5cnn(C(C)C(C)(C)O)c5)C4)nc3c2cc1F (single isomer, unassigned) [Example 48, (R or S)-3-(4-((2S,5R or 2R,5S)-5-(5-amino-9-fluoro-8-methoxy-[1,2,4]triazolo[1,5-c]quinazolin-2-yl)-2-methylpiperidin-1-yl)-1H-pyrazol-1-yl)-2-methylbutan-2-ol] | 17.6 nM | 0.6 nM
COc1cc2nc(N)n3nc([C@@H]4CC[C@H](C)N(c5cnn([C@@H](C)C(C)(C)O)c5)C4)nc3c2cc1F (single isomer, unassigned) [Example 49, (S or R)-3-(4-((2S,5R or 2R,5S)-5-(5-amino-9-fluoro-8-methoxy-[1,2,4]triazolo[1,5-c]quinazolin-2-yl)-2-methylpiperidin-1-yl)-1H-pyrazol-1-yl)-2-methylbutan-2-ol] | 2.7 nM | 0.3 nM
COc1cc2nc(N)n3nc(C4CC(F)CN(c5cnn(CC(C)(C)O)c5)C4)nc3c2cc1F (single isomer, unassigned) [Example 55, 1-(4-((3R,5S or 3S,5R)-3-(5-amino-9-fluoro-8-methoxy-[1,2,4]triazolo[1,5-c]quinazolin-2-yl)-5-fluoropiperidin-1-yl)-1H-pyrazol-1-yl)-2-methylpropan-2-ol] | 500 nM | 10.6 nM

Further lines, results first:

IC50 [1] | IC50 [2] | SMILES
42.8 nM | 1.2 nM | COc1cc2nc(N)n3nc(C4CCC(C)N(c5cnn(CC(C)(C)O)c5C)C4)nc3c2cc1F (single isomer, unassigned) [Example 41, 1-(4-((2S,5R or 2R,5S)-5-(5-amino-9-fluoro-8-methoxy-[1,2,4]triazolo[1,5-c]quinazolin-2-yl)-2-methylpiperidin-1-yl)-5-methyl-1H-pyrazol-1-yl)-2-methylpropan-2-ol]
476 nM | 4.3 nM | COc1cc2nc(N)n3nc(C4CCC(C)N(c5cn(CC(C)(C)O)nc5C)C4)nc3c2cc1F (single isomer, unassigned) [Example 42, 1-(4-((2S,5R or 2R,5S)-5-(5-amino-9-fluoro-8-methoxy-[1,2,4]triazolo[1,5-c]quinazolin-2-yl)-2-methylpiperidin-1-yl)-3-methyl-1H-pyrazol-1-yl)-2-methylpropan-2-ol]
150 nM | 1.8 nM | COc1cc2nc(N)n3nc(C4CCC(C)N(c5cnn(C6CCOCC6)c5C)C4)nc3c2cc1F (single isomer, unassigned) [Example 45, 9-fluoro-8-methoxy-2-((3R,6S or 3S,6R)-6-methyl-1-(5-methyl-1-(tetrahydro-2H-pyran-4-yl)-1H-pyrazol-4-yl)piperidin-3-yl)-[1,2,4]triazolo[1,5-c]quinazolin-5-amine]
86.4 nM | 0.6 nM | COc1cc2nc(N)n3nc(C4CCC(C)N(c5cn(C6CCOCC6)nc5C)C4)nc3c2cc1F (single isomer, unassigned) [Example 46, 9-fluoro-8-methoxy-24(3R,6S or 3S,6R)-6-methyl-1-(3-methyl-1-(tetrahydro-2H-pyran-4-yl)-1H-pyrazol-4-yl)piperidin-3-yl) [1,2,4]triazolo[1,5-c]quinazolin-5-amine]
1890 nM | 18.3 nM | COc1cc2nc(N)n3nc([C@H]4CC[C@@H](C)N(c5cn(CC6(O)CCC6)nc5C)C4)nc3c2cc1F (single isomer, unassigned) [Example 50, 1-((4-((2R,5S or 2S,5R)-5-(5-amino-9-fluoro-8-methoxy-[1,2,4]triazolo[1,5-c]quinazolin-2-yl)-2-methylpiperidin-1-yl)-3-methyl-1H-pyrazol-1-yl)methyl)cyclobutan-1-ol]
2080 nM | 21 nM | COc1cc2nc(N)n3nc([C@H]4CC[C@@H](C)N(c5cnn(CC6(O)CCC6)c5C)C4)nc3c2cc1F (single isomer, unassigned) [Example 51, 1-((4-((2R,5S or 2S,5R)-5-(5-amino-9-fluoro-8-methoxy-[1,2,4]triazolo[1,5-c]quinazolin-2-yl)-2-methylpiperidin-1-yl)-5-methyl-1H-pyrazol-1-yl)methyl)cyclobutan-1-ol]
